Tests used:
HaCaT [1] = test: Cytotoxicity against human HaCaT cells at 50 to 100 uM after 24 hrs by MTT assay; format: cell-based
HaCaT [2] = test: Antiinflammatory activity against IFN-gamma-stimulated human HaCaT cells assessed as inhibition of chemokine MDC production at 50 to 100 uM after 18 hrs by ELISA; format: functional, cell-based
RAW264.7 [3] = test: Antiinflammatory activity against LPS-stimulated mouse RAW264.7 cells assessed as inhibition of NO production at 3.125 to 25 uM after 24 hrs by Griess method; format: functional, cell-based
RAW264.7 [4] = test: Cytotoxicity against mouse RAW264.7 cells at 100 uM after 24 hrs by MTT assay; format: cell-based; conditions: raw264.7, 24 h
RAW264.7 [5] = test: Cytotoxicity against mouse RAW264.7 cells at 50 uM after 24 hrs by MTT assay; format: cell-based; conditions: raw264.7, 24 h

SMILES | Activity (HaCaT [1]) | Activity (HaCaT [2]) | Activity (RAW264.7 [3]) | Activity (RAW264.7 [4]) | Activity (RAW264.7 [5])
CCCCCCCC/C=C\CCCCCCCC(=O)N[C@H](C)CO | Toxic | Non-toxic | – | – | –
CCCCCCC/C=C/C(=O)CCCCCCCC(=O)NCC(=O)O | Toxic | Non-toxic | Dose-dependent effect | Toxic | Toxic
CCCCCCCC/C=C\CCCCCCCCCCCC(=O)N[C@H](C)CO | Toxic | Non-toxic | – | – | –
CCCCCCCC/C=C\CCCCCCCCCCCC(=O)NCCO | Toxic | Non-toxic | – | – | –
CCCCCCCCCCCCCCCC(=O)N[C@H](C)CO | Toxic | Non-toxic | – | – | –
CC/C=C\C/C=C\C/C=C\CCCCCCCC(=O)NCC(=O)O | Toxic | Non-toxic | – | – | –
CC/C=C\C/C=C\C/C=C\CCCCCCCC(=O)NC(C)C | Toxic | Non-toxic | – | – | –
CCCCCCCC(=O)/C=C/CCCCCCCC(=O)NCC(O)CO (racemic) | Toxic | Non-toxic | – | Toxic | Toxic
CCCCCCC/C=C/C(=O)CCCCCCCC(=O)NC(C)C | Toxic | Non-toxic | – | Toxic | Toxic
CCCCCCCC/C=C/C(=O)CCCCCCC(=O)NCCc1ccc(O)c(O)c1 | Toxic | Non-toxic | – | Toxic | Toxic
CCCCCCCC/C=C\CCCCCCCCCCCC(=O)NCC(O)CO (racemic) | Toxic | Non-toxic | – | – | –
CCCCC/C=C\C/C=C\CCCCCCCC(=O)NCC(=O)O [LINOLEOYL GLYCINE] | Toxic | Non-toxic | – | – | –
CCCCCCC/C=C/C(=O)CCCCCCCC(=O)NCCc1ccc(O)c(O)c1 | Toxic | Non-toxic | – | Toxic | Toxic
CCCCCCCC/C=C\CCCCCCCC(=O)NCCCl | Toxic | Non-toxic | – | – | –
CC/C=C\C/C=C\C/C=C\CCCCCCCC(=O)N[C@H](C)CO | Toxic | Non-toxic | – | – | –
CCCCCCCC(=O)/C=C/CCCCCCCC(=O)NC(C)C | Toxic | Non-toxic | – | Toxic | Toxic
CCCCCCC/C=C/C(=O)CCCCCCCC(=O)NCCCl | Toxic | Non-toxic | – | Toxic | Toxic
CCCCCCCC/C=C/C(=O)CCCCCCC(=O)NC(C)C | Toxic | Non-toxic | – | Toxic | Toxic
CC/C=C\C/C=C\C/C=C\CCCCCCCC(=O)O [LINOLENIC ACID] | Toxic | Non-toxic | – | – | –
CCCCCCCC(=O)/C=C/CCCCCCCC(=O)N[C@H](C)CO | Toxic | Non-toxic | – | Toxic | Toxic

SMILES | Activity (HaCaT [1]) | Activity (HaCaT [2]) | Activity (RAW264.7 [3]) | Activity (RAW264.7 [4]) | Activity (RAW264.7 [5])
CCCCC/C=C\C/C=C\CCCCCCCC(=O)N[C@H](C)CO | Toxic | Non-toxic | – | – | –
CCCCCCCC/C=C/C(=O)CCCCCCC(=O)NCC(=O)O | Toxic | Non-toxic | Dose-dependent effect | Toxic | Toxic
CCCCCCCCC(=O)/C=C/CCCCCCC(=O)NC(C)C | Toxic | Non-toxic | Dose-dependent effect | Toxic | Toxic
CCCCCCCC/C=C/C(=O)CCCCCCC(=O)NCCO | Toxic | Non-toxic | – | Toxic | Toxic
CCCCCCCCC(=O)/C=C/CCCCCCC(=O)NCCO | Toxic | Non-toxic | Dose-dependent effect | Toxic | Toxic
CCCCCCCC/C=C\CCCCCCCCCCCC(=O)NCCCl | Toxic | Non-toxic | – | – | –
CCCCC/C=C\C/C=C\CCCCCCCC(=O)NCC(O)CO (racemic) | Toxic | Non-toxic | – | – | –
CCCCCCCC(=O)/C=C/CCCCCCCC(=O)NCCc1c[nH]c2ccc(O)cc12 | Toxic | Non-toxic | – | Toxic | Toxic
CCCCCCCC(=O)/C=C/CCCCCCCC(=O)NCCc1ccc(O)c(O)c1 | Toxic | Non-toxic | – | Toxic | Toxic
CCCCCCCC/C=C\CCCCCCCC(=O)NCCO [OLEOYLETHANOLAMIDE] | Toxic | Non-toxic | – | – | –
CCCCCCCC/C=C\CCCCCCCC(=O)NCC(=O)O [OLEOYL GLYCINE] | Toxic | Non-toxic | – | – | –
CCCCC/C=C\C/C=C\CCCCCCCC(=O)NCCO [LINOLEOYLETHANOLAMIDE] | Toxic | Non-toxic | – | – | –
CCCCCCCC/C=C\CCCCCCCC(=O)NC(C)C | Toxic | Non-toxic | – | – | –
CCCCCCCC/C=C/C(=O)CCCCCCC(=O)NCCCl | Toxic | Non-toxic | – | Toxic | Toxic
CCCCCCC/C=C/C(=O)CCCCCCCC(=O)NCCc1c[nH]c2ccc(O)cc12 | Toxic | Non-toxic | – | Toxic | Toxic
CCCCCCCCC(=O)/C=C/CCCCCCC(=O)NCCCl | Toxic | Non-toxic | Dose-dependent effect | Toxic | Toxic
CCCCCCCCCCCCCCCC(=O)NCCO [PALMIDROL] | Toxic | Non-toxic | – | – | –
CCCCCCCCC(=O)/C=C/CCCCCCC(=O)N[C@H](C)CO | Toxic | Non-toxic | Dose-dependent effect | Toxic | Toxic
CCCCCCCCCCCCCCCC(=O)NCC(=O)O [PALMITOYL GLYCINE] | Toxic | Non-toxic | – | – | –
CC/C=C\C/C=C\C/C=C\CCCCCCCC(=O)NCCc1c[nH]c2ccc(O)cc12 | Toxic | Non-toxic | – | – | –

SMILES | Activity (HaCaT [1]) | Activity (HaCaT [2]) | Activity (RAW264.7 [3]) | Activity (RAW264.7 [4]) | Activity (RAW264.7 [5])
CCCCCCCC(=O)/C=C/CCCCCCCC(=O)NCCO | Toxic | Non-toxic | – | Toxic | Toxic
CCCCCCC/C=C/C(=O)CCCCCCCC(=O)N[C@H](C)CO | Toxic | Non-toxic | – | Toxic | Toxic
CCCCCCCC/C=C/C(=O)CCCCCCC(=O)NCCc1c[nH]c2ccc(O)cc12 | Toxic | Non-toxic | – | Toxic | Toxic
CCCCCCCC(=O)/C=C/CCCCCCCC(=O)NCCCl | Toxic | Non-toxic | – | Toxic | Toxic
CCCCCCCC/C=C\CCCCCCCC(=O)NCC(O)CO (racemic) | Toxic | Non-toxic | – | – | –
CCCCCCCC/C=C/C(=O)CCCCCCC(=O)NCC(O)CO (racemic) | Toxic | Non-toxic | – | Toxic | Toxic
CC/C=C\C/C=C\C/C=C\CCCCCCCC(=O)NCCO | Toxic | Non-toxic | – | – | –
CCCCCCCCCCCCCCCC(=O)NCC(O)CO (racemic) | Toxic | Non-toxic | – | – | –
CCCCCCCC/C=C\CCCCCCCCCCCC(=O)NC(C)C | Toxic | Non-toxic | – | – | –
CC/C=C\C/C=C\C/C=C\CCCCCCCC(=O)NCC(O)CO (racemic) | Toxic | Non-toxic | – | – | –
CCCCCCC/C=C/C(=O)CCCCCCCC(=O)NCCO | Toxic | Non-toxic | – | Toxic | Toxic
CCCCC/C=C\C/C=C\CCCCCCCC(=O)NC(C)C | Toxic | Non-toxic | – | – | –
CCCCC/C=C\C/C=C\CCCCCCCC(=O)NCCCl | Toxic | Non-toxic | – | – | –
CC/C=C\C/C=C\C/C=C\CCCCCCCC(=O)NCCCl | Toxic | Non-toxic | – | – | –
CCCCCCC/C=C/C(=O)CCCCCCCC(=O)NCC(O)CO (racemic) | Toxic | Non-toxic | – | Toxic | Toxic
CCCCCCCCCCCCCCCC(=O)NCCCl | Toxic | Non-toxic | – | – | –
CCCCCCCCC(=O)/C=C/CCCCCCC(=O)NCC(O)CO (racemic) | Toxic | Non-toxic | Dose-dependent effect | Toxic | Toxic
CCCCCCCCCCCCCCCC(=O)NC(C)C [HEXADECANOIC ACID ISOPROPYLAMIDE] | Toxic | Non-toxic | – | – | –
CCCCCCCCC(=O)/C=C/CCCCCCC(=O)NCCc1c[nH]c2ccc(O)cc12 | Toxic | Non-toxic | Dose-dependent effect | Toxic | Toxic
CCCCCCCC/C=C/C(=O)CCCCCCC(=O)N[C@H](C)CO | Toxic | Non-toxic | – | Toxic | Toxic
